From patent US20250186379A1, “METHODS AND AGENTS FOR DECREASING INSULIN RESISTANCE” (Whitehead Institute for Biomedical Research, priority 2021, published 2025)
Entries after “also recorded” stand apart in the source; their conditions may differ.

Key:
Format in all cases: cell-based, human
IR condensates [1] = assay: Imaging of IR puncta/condensates (immunofluorescence, IR-GFP) in HepG2 cells
Procedure: For insulin sensitivity and resistance experiments in HepG2 cells, cells were washed with EMEM once and cultured in EMEM for two days. […] To wash out insulin, cells were washed in EMEM seven times, which includes three quick washes, three 5 min washes and a long 20 minute-wash in EMEM at 37° C. In order to investigate insulin response, cells were acutely treated for 5 min with insulin diluted in EMEM supplemented with 1.25% fatty acid-free BSA at 37° C. with 5% CO2 in a humidified incubator.
Metformin (SIGMA, D150959-5G) was resuspended in sterile water to a concentration of 1M and diluted to the reported concentrations in the figures in cell media. […]
HepG2 cells, human liver spheroids and human tissue liver sections were fixed in 4% PFA (VWR, BT140770-10X10) in PBS for 10 min at room temperature. Cells were washed in PBS three times for 5 min and then blocked with 4% IgG-free BSA (VWR, 102643-516) for 15-60 min at room temperature. Cells were then incubated with 1:500 primary antibody in 4% IgG-free BSA at 4° C. overnight. The next day, cells were washed three times with PBS and incubated with 1:500 secondary antibodies in 4% IgG-free BSA at room temperature for 1 hr covered in foil. Cells were washed three times with PBS for 5 min. DNA was stained using 1:5000 Hoechst in PBS for 5 min at RT. Cells were washed three times with PBS for 5 min, stored at 4° C. until imaging. For tissue sections, samples were mounted using Vectashield mounting media (Vector Laboratories, Inc, H-1000). LSM880 microscope with Airyscan detector (ZEISS) was used for image acquisition. Images were then processed using Fiji/ImageJ v2.1.0/153c.
Cells expressing endogenous IR tagged with GFP were grown on 35 mm glass bottom dishes (MatTek Corporation, P35G-1.5-20-C). Cells were imaged at 37° C. using the SM880 Microscope with Airyscan detector with 63× objective and Zen Black software (ZEISS) at the W.M. Keck Microscopy Facility, MIT. Images were then processed using Fiji/ImageJ v2.1.0/153c.
To quantify IR fluorescent signal in puncta, Fiji/ImageJ v2.1.0/153c was used. A circle or an oval was drawn around IR puncta using the oval selection tool and the average fluorescence intensity in the circle/oval (=in the puncta) was determined using the measure tool on Fiji. Background was then subtracted as previously described. To quantify IR fluorescent signal at puncta in various cellular compartments, applicant identified the location of the plasma membrane, cytoplasm, nucleus and RNA FISH spots as follows. The plasma membrane location was identified based on IR immunofluorescence signal, IR-GFP fluorescent signal or CK18 immunofluorescence signal or cell edge. The nucleus was determined by the Hoechst stain for immunofluorescence and tc-PALM experiments or by IR-GFP fluorescence when HepG2 cells expressing IR-GFP were imaged. Given the overlap between Hoechst fluorescence and GFP fluorescence, artefactual green fluorescence coming from the Hoechst confounded IR puncta identification in the nucleus. Since the differences in IR puncta intensity and concentration between cytoplasm and nucleus in HepG2 cells was clear, nuclear outline was easily drawn based on IR-GFP fluorescent signal. Cytoplasm was considered the region between the plasma membrane and the nucleus. RNA FISH spots were identified based on RNA FISH probe fluorescence. Within the FISH spot, IR intensity was measured using the measure tool.
To estimate the number of IR puncta at the plasma membrane, cytoplasm, nucleus or in entire cells, IR puncta were initially counted in a cell slice using Fiji. The number obtained from the cell slice was then multiplied based on the estimated size of the plasma membrane, cytoplasm, nucleus or entire cell, which were obtained considering the length and width of the cell under investigation and the estimated height (˜5 um). […]

IR condensates [2] = assay: tc-PALM of IR cluster/condensate dynamics in HepG2 cells expressing IR-Dendra2; conditions: insulin sensitive cells; 20 mM H2O2
Procedure: Widefield Live-cell super-resolution imaging was performed in a photo-activation localization microscopy (PALM) approach using a Nikon Eclipse Ti microscope with a 100× oil immersion objective. The 405 nm and 561 nm laser beams were combined in an external platform with customized power densities to image Dendra2-tagged molecules as previously reported (56). Cells were maintained at 37° C. in a temperature-controlled platform during imaging, and the CO2 level was maintained at 5% by Leibovitz's L-15 Medium with no phenol red (ThermoFisher #21083027). In each imaging cycle, a 2400-frame video stream including a (256 pixel)2 region of interest (ROI) was recorded in 20 Hz acquisition rate with the EM-gain setting as 1000 on an Andor iXon Ultra 897 EMCCD. Each pixel conjugates with a (160 nm)2 area on the sample side. After PALM imaging, the Hoechst-stained nuclei of the same ROI were imaged with stronger 405 nm excitation through DAPI filter.
Detection localization. For each frame of a raw image, Gaussian particles were identified by pixelwise test of hypotheses, whose peak positions were individually fitted at subpixel resolution by maximum-likelihood regression with Gauss-Newton method (91). An additional deflation loop was performed to avoid missing dimmer particles when they were overshadowed by neighboring brighter ones. This multi-particle detection localization procedure has been integrated in a published, open-source MATLAB software called MTT (91).
Spatial clustering. DBSCAN and “manual selection” hybridized approach was applied to group spatially clustered detections via the qSR software (92). Firstly, DBSCAN was performed to generalize a proposal map of spatially clustered detections. Given that IR condensates can be tiny and transient, a “loose” parameter setting was used when performing the DBSCAN (length-scale=120 nm, N_min=4). This parameter combination was determined by comparing the rendered super-resolved reconstructions with the color-coded cluster maps until the clustering results visually make sense for most ROIs. Secondly, individual clusters were manually selected based on the clustering proposal map from last step. Some custom MATLAB code was used to reconstruct the IR distribution of each ROI superposed with the corresponding nuclei image, which was further cross-compared with the corresponding cluster map to determine which region each cluster belongs to (i.e., plasma-membrane, cytoplasm, or nucleus).
Temporal clustering. For each spatial cluster, time-correlated PALM (tc-PALM) analysis was performed along the time axis to extract the truly colocalized, time-correlated multimolecule bursting events (11, 13-14). The lifetime of a burst is simply defined as the timespan from the first to the last detections. More details about the quantitative validations and statistics of tc-PALM analysis can be found in NOTES and FIG. 11.
Widefield, live-cell, super-resolution imaging was performed in a photo-activation localization microscopy (PALM) approach using a Nikon Eclipse Ti microscope with a 100× oil immersion objective. The 405 nm and 561 nm laser beams were combined in an external platform with customized power densities to image Dendra2-tagged molecules as previously reported^24. Cells were cultured on imaging dishes (MatTek, P35G-1.5-20-C) and then imaged while maintaining both the temperature at 37° C. with a temperature-controlled platform and the level of CO2 at 5% with Leibovitz's L-15 Medium with no phenol red (Thermo Fisher, 21083027). During each imaging cycle, a 2400-frame video stream including a (256 pixel)^2 region of interest (ROI) was recorded in 20 Hz acquisition rate with the EM-gain setting as 1000 on an Andor iXon Ultra 897 EMCCD. Each pixel conjugates with a (160 nm)^2 area on the sample side. After PALM imaging, the Hoechst-stained nuclei of the same ROI were imaged using a stronger 405 nm excitation through DAPI filter. […] Following a 5-minute wait, the cells were imaged for 15-20 minutes.

[3] = tested on: transcriptional condensates at SMAD7; assay: IR-GFP and SMAD7 intronic RNA FISH colocalization in HepG2 cells; conditions: insulin sensitive cells; H2O2; 3 nM insulin 5 min (FIG. 6E)

SMILES | IR condensates defects (signal intensity and lifetime) (IR condensates [1]; insulin-resistant cells, 1 mM NAC 24 hours (FIGS. 19E-19F, 40B)) | incorporation of IR into condensates with insulin stimulation (IR condensates [1]; insulin sensitive cells, 20 mM H2O2 for 30 min) | IR condensate dynamics (IR condensates [2]) | IR incorporation in transcriptional condensates [3]
CC(=O)N[C@@H](CS)C(=O)O [NAC, N-acetyl cysteine, reference compound] | partially rescued IR condensates defects | – | – | –
OO [H2O2, reference compound] | – | caused a reduction in the incorporation of IR into condensates with insulin stimulation | caused reduced IR condensate dynamics; also recorded: altered IR condensate dynamics | caused a reduction in IR incorporation in transcriptional condensates
